Source: US8148371B2, “Adenine compound and use thereof” (Dainippon Sumitomo Pharma Co., Ltd., priority 2002, dated 2012)
Marks after values point to notes of the source that are not given here.

System: not listed separately
Assay: Metabolic stability on liver S9 of rat
Details: rat liver S9, test compound 1 μM, 37° C.

Compound | Residual rate [%]
CCCCOc1nc(N)c2nc(O)n(Cc3ccc(CC(=O)OC)cc3)c2n1 [Example 20, 2-Butoxy-8-hydroxy-9-(4-methoxycarbonylmethylbenzyl)adenine] | 0
Nc1nc(SC2CCOC2=O)nc2c1nc(O)n2Cc1ccccc1 (stereo not drawn) [Example 59, 9-Benzyl-2-(2-butyrolactino)thio-8-hydroxyadenine] | 7
CCCCOc1nc(N)c2nc(O)n(Cc3ccc(C(=O)OC)o3)c2n1 [Example 15, 2-Butoxy-8-hydroxy-9-(5-methoxycarbonylfurfuryl)adenine] | 11
CCCCOc1nc(N)c2nc(O)n(Cc3ccc(C(=O)OC(C)C)o3)c2n1 [Example 16, 2-Butoxy-8-hydroxy-9-(5-isopropoxycarbonylfurfuryl)adenine] | 0
CCCCOc1nc(N)c2nc(O)n(Cc3ccc(CC(=O)OC(C)C)cc3)c2n1 [Example 21, 2-Butoxy-8-hydroxy-9-(4-isopropoxycarbonylmethylbenzyl)adenine] | 26
Nc1nc(SCC(=O)N2CCCCC2)nc2c1nc(O)n2Cc1ccccc1 [Example 51, 9-Benzyl-8-hydroxy-2-(1-piperidinocarbonylmethyl)thioadenine] | 0
CCOC(=O)Cc1nc(N)c2nc(O)n(Cc3ccccc3)c2n1 [Example 30, 9-Benzyl-2-ethoxycarbonylmethyl-8-hydroxyadenine] | 4
Nc1nc(SCC(=O)OCC(F)(F)F)nc2c1nc(O)n2Cc1ccccc1 [Example 48, 9-Benzyl-2-(2,2,2-trifluoroethoxycarbonylmetyl)thio-8-hydroxyadenine] | 0
CCOC(=O)C(C)Sc1nc(N)c2nc(O)n(Cc3ccccc3)c2n1 (stereo not drawn) [Example 53, 9-Benzyl-8-hydroxy-2-(1-ethoxycarbonylethyl)thioadenine] | 2
CCNC(=O)CSc1nc(N)c2nc(O)n(Cc3ccccc3)c2n1 [Example 50, 9-Benzyl-2-(ethylcarbamoylmethyl)thio-8-hydroxyadenine] | 7
CCCCOc1nc(N)c2[nH]c(=O)n(Cc3cccc(C(=O)OC)c3)c2n1 [Example 1, 2-Butoxy-8-hydroxy-9-(3-methoxycarbonylbenzyl)adenine] | 7

Same assay, conditions: rat liver S9, test compound 10 μM (*), 37° C.

Compound | Residual rate
CC(=O)OCCNc1nc(N)c2nc(O)n(Cc3ccc(C)nc3)c2n1 [Example 33, 2-(2-Acetoxyethylamino)-8-hydroxy-9-{(6-methyl-3-pyridyl)methyl}adenine] | 2* %
COC(=O)OCCNc1nc(N)c2nc(O)n(Cc3ccc(C)nc3)c2n1 [Example 34, 8-Hydroxy-2-(2-methoxycarbonyloxyethylamino)-9-{(6-methyl-3-pyridyl)methyl}adenine] | 1* %

System: plasma esterase
Assay: not given
Details: rat plasma, test compound 1 μM (*), 37° C., 15 minutes

Compound | Residual rate
CCCCOc1nc(N)c2nc(O)n(Cc3ccc(CC(=O)OC(C)C)cc3)c2n1 [Example 21, 2-Butoxy-8-hydroxy-9-(4-isopropoxycarbonylmethylbenzyl)adenine] | 0* %

Same assay, conditions: rat plasma, test compound 10 μM, 37° C., 15 minutes

Compound | Residual rate [%]
CCCCOc1nc(N)c2nc(O)n(Cc3ccc(CC(=O)OC)cc3)c2n1 [Example 20, 2-Butoxy-8-hydroxy-9-(4-methoxycarbonylmethylbenzyl)adenine] | 0
Nc1nc(SC2CCOC2=O)nc2c1nc(O)n2Cc1ccccc1 (stereo not drawn) [Example 59, 9-Benzyl-2-(2-butyrolactino)thio-8-hydroxyadenine] | 0
CCCCOc1nc(N)c2nc(O)n(Cc3ccc(C(=O)OC)o3)c2n1 [Example 15, 2-Butoxy-8-hydroxy-9-(5-methoxycarbonylfurfuryl)adenine] | 0
COC(=O)OCCNc1nc(N)c2nc(O)n(Cc3ccc(C)nc3)c2n1 [Example 34, 8-Hydroxy-2-(2-methoxycarbonyloxyethylamino)-9-{(6-methyl-3-pyridyl)methyl}adenine] | 11
CCCCOc1nc(N)c2nc(O)n(Cc3ccc(C(=O)OC(C)C)o3)c2n1 [Example 16, 2-Butoxy-8-hydroxy-9-(5-isopropoxycarbonylfurfuryl)adenine] | 0
CCOC(=O)Cc1nc(N)c2nc(O)n(Cc3ccccc3)c2n1 [Example 30, 9-Benzyl-2-ethoxycarbonylmethyl-8-hydroxyadenine] | 0
Nc1nc(SCC(=O)OCC(F)(F)F)nc2c1nc(O)n2Cc1ccccc1 [Example 48, 9-Benzyl-2-(2,2,2-trifluoroethoxycarbonylmetyl)thio-8-hydroxyadenine] | 0
CCOC(=O)C(C)Sc1nc(N)c2nc(O)n(Cc3ccccc3)c2n1 (stereo not drawn) [Example 53, 9-Benzyl-8-hydroxy-2-(1-ethoxycarbonylethyl)thioadenine] | 0
CCCCOc1nc(N)c2[nH]c(=O)n(Cc3cccc(C(=O)OC)c3)c2n1 [Example 1, 2-Butoxy-8-hydroxy-9-(3-methoxycarbonylbenzyl)adenine] | 32

System: IL-5
Assay: IL-5 in BALF supernatant on an asthma modeled mouse (ELISA)
Assay type: in vivo, C57BL/6 mouse
Details: 10 mg/kg nasally
Experimental: (§1) C57BL/6 mouse was immunized by dermally administering denatured ovalbumin by heating (40 mg). Fourteen days later after the first immunization, ovalbumin (100 μg) was nasally busted. Twenty one days later after the first immunization, the solution (1 ml/kg) prepared by suspending the test compound (10 mg/kg) in physiological saline was nasally administered (10 μl/10 g/body weight). After 2 hours ovalbumin (100 μg) was nasally challenged. After 18 hours, bronchoalveolar lavege fluid (BALF) was collected, and the total number of leucocytes in BALF and fractioned leukocyte in the cytospin sample were measured. By ELISA method, IL-4 and IL-5 in the supernatant were measured. The number of leucocytes (inhibition %) was shown in Table 5 and the production inhibition activity of IL-4 and IL-5 (inhibition % to control) was shown in Table 6.

Compound | IL-5 production inhibition activity (inhibition % to control) [%]
CCCCOc1nc(N)c2nc(O)n(Cc3ccc(C(=O)OC)o3)c2n1 [Example 15, 2-Butoxy-8-hydroxy-9-(5-methoxycarbonylfurfuryl)adenine] | 75

System: leucocytes in BALF
Assay: Amount of leucocytes in bronchoalveolar lavage fluid (BALF) on an asthma modeled mouse
Assay type: in vivo, C57BL/6 mouse
Details: 10 mg/kg nasally, BALF 18 hours after ovalbumin challenge
Experimental: as §1

Compound | Acidophile (inhibition %) [%] | Netrophile (inhibition %) [%] | Number of total leukocyte (inhibition %) [%]
CCCCOc1nc(N)c2nc(O)n(Cc3ccc(C(=O)OC)o3)c2n1 [Example 15, 2-Butoxy-8-hydroxy-9-(5-methoxycarbonylfurfuryl)adenine] | 101 | −92 | 84

System: cells of mouse spleen
Assay: cells
Assay type: cell-based, C3H/HeJ mouse
Details: not given

Compound | Minimum effective concentration (interferon inducing activity) [µM]
Nc1nc(SC2CCOC2=O)nc2c1nc(O)n2Cc1ccccc1 (stereo not drawn) [Example 59, 9-Benzyl-2-(2-butyrolactino)thio-8-hydroxyadenine] | 0.1
Nc1nc(SCC(=O)OCC(F)(F)F)nc2c1nc(O)n2Cc1ccccc1 [Example 48, 9-Benzyl-2-(2,2,2-trifluoroethoxycarbonylmetyl)thio-8-hydroxyadenine] | 0.3

Same assay, conditions: Mus musculus, 24 h, read-out: Minimum effective concentration (interferon inducing activity)

Compound | minimal effective concentration [µM]
CCCCOc1nc(N)c2nc(O)n(Cc3ccc(CC(=O)OC)cc3)c2n1 [Example 20, 2-Butoxy-8-hydroxy-9-(4-methoxycarbonylmethylbenzyl)adenine] | 0.003
CC(=O)OCCNc1nc(N)c2nc(O)n(Cc3ccc(C)nc3)c2n1 [Example 33, 2-(2-Acetoxyethylamino)-8-hydroxy-9-{(6-methyl-3-pyridyl)methyl}adenine] | 0.1
CCCCOc1nc(N)c2nc(O)n(Cc3ccc(C(=O)OC)o3)c2n1 [Example 15, 2-Butoxy-8-hydroxy-9-(5-methoxycarbonylfurfuryl)adenine] | 0.003
COC(=O)OCCNc1nc(N)c2nc(O)n(Cc3ccc(C)nc3)c2n1 [Example 34, 8-Hydroxy-2-(2-methoxycarbonyloxyethylamino)-9-{(6-methyl-3-pyridyl)methyl}adenine] | 0.1
CCCCOc1nc(N)c2nc(O)n(Cc3ccc(C(=O)OC(C)C)o3)c2n1 [Example 16, 2-Butoxy-8-hydroxy-9-(5-isopropoxycarbonylfurfuryl)adenine] | 0.003
CCCCOc1nc(N)c2nc(O)n(Cc3ccc(CC(=O)OC(C)C)cc3)c2n1 [Example 21, 2-Butoxy-8-hydroxy-9-(4-isopropoxycarbonylmethylbenzyl)adenine] | 0.003
Nc1nc(SCC(=O)N2CCCCC2)nc2c1nc(O)n2Cc1ccccc1 [Example 51, 9-Benzyl-8-hydroxy-2-(1-piperidinocarbonylmethyl)thioadenine] | 0.1
CCOC(=O)Cc1nc(N)c2nc(O)n(Cc3ccccc3)c2n1 [Example 30, 9-Benzyl-2-ethoxycarbonylmethyl-8-hydroxyadenine] | 0.01
CCOC(=O)C(C)Sc1nc(N)c2nc(O)n(Cc3ccccc3)c2n1 (stereo not drawn) [Example 53, 9-Benzyl-8-hydroxy-2-(1-ethoxycarbonylethyl)thioadenine] | 0.1
CCNC(=O)CSc1nc(N)c2nc(O)n(Cc3ccccc3)c2n1 [Example 50, 9-Benzyl-2-(ethylcarbamoylmethyl)thio-8-hydroxyadenine] | 0.1
CCCCOc1nc(N)c2[nH]c(=O)n(Cc3cccc(C(=O)OC)c3)c2n1 [Example 1, 2-Butoxy-8-hydroxy-9-(3-methoxycarbonylbenzyl)adenine] | < 0.001

System: cells of rat spleen
Assay: cells
Assay type: cell-based, SD rat
Details: 24 h, read-out: Minimum effective concentration (interferon inducing activity)

Compound | minimal effective concentration [µM]
CCCCOc1nc(N)c2nc(O)n(Cc3ccc(CC(=O)OC)cc3)c2n1 [Example 20, 2-Butoxy-8-hydroxy-9-(4-methoxycarbonylmethylbenzyl)adenine] | 0.0001
CCCCOc1nc(N)c2nc(O)n(Cc3ccc(C(=O)OC)o3)c2n1 [Example 15, 2-Butoxy-8-hydroxy-9-(5-methoxycarbonylfurfuryl)adenine] | 0.001
CCCCOc1nc(N)c2nc(O)n(Cc3ccc(CC(=O)OC(C)C)cc3)c2n1 [Example 21, 2-Butoxy-8-hydroxy-9-(4-isopropoxycarbonylmethylbenzyl)adenine] | 0.001
CCOC(=O)Cc1nc(N)c2nc(O)n(Cc3ccccc3)c2n1 [Example 30, 9-Benzyl-2-ethoxycarbonylmethyl-8-hydroxyadenine] | 0.01
CCCCOc1nc(N)c2[nH]c(=O)n(Cc3cccc(C(=O)OC)c3)c2n1 [Example 1, 2-Butoxy-8-hydroxy-9-(3-methoxycarbonylbenzyl)adenine] | 0.0003

System: type 2 herpes virus (HSV-2)
Assay: Anti HSV activity in mouse infected with HSV-2 in its vagina
Assay type: in vivo, BALB/c female mouse
Details: 5% ointment (0.5 mg per mouse) spread to vagina, 9 days after virus-infection
Experimental: Compound A was spread to a vagina of a female mouse (BALB/c) to which previously Depo-Provera was administered, and on next day, HSV-2 was infected to the vagina. Nine days later, the rate of survival or death of mice was observed and compared.
On the back of a BALB/c female mouse (6 weeks old: Nippon SLC) 3 mg of Depo-Provera/mouse (Registered Trade Mark) was dermally administered and the mice were fed for 6 days. By doing this the sexual cycle was tuned and the sensitivity between mice to herpes virus was balanced. The slime of mouse vagina was removed by a cotton swab for baby, and the ointment (20 mg) containing 0.5% of compound of Example 20 or the ointment (10 mg) containing 5% of compound of Example 20 was spread to the vagina (corresponding 0.1 mg and 0.5 mg per mouse of the compound of Example). As a control, the placebo ointment not containing the compound was spread as well. As the ointment, the base consisting of 80% Vaseline and 20% liquid paraffin were used. On the next day, the slime of mouse vagina was removed by a cotton swab for baby and then, 2×10^4 pfu type 2 herpes virus (HSV-2)(10 μl/mouse) was administered to the vagina by pipette. After infection the death or survival of the mice was observed.

Compound | survived rate [%]
CCCCOc1nc(N)c2nc(O)n(Cc3ccc(CC(=O)OC)cc3)c2n1 [Example 20, 2-Butoxy-8-hydroxy-9-(4-methoxycarbonylmethylbenzyl)adenine] | 100

Same assay, conditions: ointments containing 0.5% and 5%, 9 days after virus-infection

Compound | survived rate comparing with a control group
CCCCOc1nc(N)c2nc(O)n(Cc3ccc(CC(=O)OC)cc3)c2n1 [Example 20, 2-Butoxy-8-hydroxy-9-(4-methoxycarbonylmethylbenzyl)adenine] | clearly higher survived rate

System: IL-4
Assay: IL-4 in BALF supernatant on an asthma modeled mouse (ELISA)
Assay type: in vivo, C57BL/6 mouse
Details: 10 mg/kg nasally
Experimental: as §1

Compound | IL-4 production inhibition activity (inhibition % to control) [%]
CCCCOc1nc(N)c2nc(O)n(Cc3ccc(C(=O)OC)o3)c2n1 [Example 15, 2-Butoxy-8-hydroxy-9-(5-methoxycarbonylfurfuryl)adenine] | 80
